# Measured values as given in patent US20250011368A1, “DLL3 TARGETING PEPTIDES AND CONSTRUCTS THEREOF” (MARIANA ONCOLOGY INC., priority 2023, published 2025).
# Numbered stars: 1 amine (or outer) side, 2 acyl side, 3 side chain; on linkers, the order of the positions; unused ones are H or OH. Bridge positions count the residues as written; N and C are the ends. Square brackets hold non-standard residues; d marks the D form. Side chains are listed from the residue outwards. Peptide text beside a SMILES is read from it. * marks the point of attachment. ξ: configuration not given here. TtdsdLys(DOTA)NH2 = NC(=O)[C@@H](CCCCNC(=O)CN1CCN(CC(=O)O)CCN(CC(=O)O)CCN(CC(=O)O)CC1)NC(=O)CCC(=O)NCCCOCCOCCOCCCN*; X4 = O=C(O)CN1CCN(CC(=O)O)CCN(CC(=O)N[C@H]2CC[C@H](CC(=O)*)CC2)CCN(CC(=O)O)CC1; X9 = O=C(O)CN1CCN(CC(=O)O)CCN(CC(=O)NCCCOCCOCCOCCCN*)CCN(CC(=O)O)CC1; DOTA = O=C(O)CN1CCN(CC(=O)O)CCN(CC(=O)*)CCN(CC(=O)O)CC1; Trp(7-aza) = N[C@@H](Cc1c[nH]c2ncccc12)C(=O)O; 2Nal = N[C@@H](Cc1ccc2ccccc2c1)C(=O)O; Nva(3-Et) = CCC(CC)[C@H](N)C(=O)O; ξThr(3R) = C[C@@H](O)C(N)C(=O)O; Cha = N[C@@H](CC1CCCCC1)C(=O)O; Chg = N[C@H](C(=O)O)C1CCCCC1; Suc = O=C(CCC(=O)[*:2])[*:1]
# Molecular target: T1, human DLL3 (Homo sapiens, UniProt Q9NYJ7)
# T1 sequence (Q9NYJ7 27-618): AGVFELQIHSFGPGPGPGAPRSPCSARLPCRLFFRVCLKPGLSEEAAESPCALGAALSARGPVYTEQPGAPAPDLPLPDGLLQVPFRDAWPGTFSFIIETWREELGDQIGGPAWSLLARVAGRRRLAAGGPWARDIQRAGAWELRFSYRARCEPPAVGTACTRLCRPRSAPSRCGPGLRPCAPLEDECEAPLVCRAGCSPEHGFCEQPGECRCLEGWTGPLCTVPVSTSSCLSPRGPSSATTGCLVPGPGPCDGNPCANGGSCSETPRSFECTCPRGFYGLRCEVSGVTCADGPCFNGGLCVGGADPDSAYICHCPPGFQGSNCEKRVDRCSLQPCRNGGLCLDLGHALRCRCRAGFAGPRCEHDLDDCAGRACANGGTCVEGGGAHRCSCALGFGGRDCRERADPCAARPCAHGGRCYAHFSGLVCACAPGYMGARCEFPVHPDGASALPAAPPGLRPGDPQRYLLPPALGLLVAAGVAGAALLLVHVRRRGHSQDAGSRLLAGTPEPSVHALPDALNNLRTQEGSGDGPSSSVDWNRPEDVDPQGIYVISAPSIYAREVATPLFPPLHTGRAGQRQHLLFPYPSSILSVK
# Assay: Affinity determination by Surface Plasmon Resonance (SPR)
# Format: binding
# Details: 25° C., biotinylated human DLL3 immobilized on streptavidin sensor chip, 1:1 binding model; read-out: SPR KD
# How it was run: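 Kinetic and affinity constants were derived by fitting sensorgrams to a 1:1 binding model. Graded compound concentrations flowed at 100 μL/minute in 20 mM phosphate running buffer with 2% DMSO over streptavidin-immobilized biotinylated human DLL3, reference-subtracted.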
row,Compound,Kd [nM]
1,"CC[C@H](C)[C@H](NC(=O)[C@@H](NC(=O)[C@H](Cc1c[nH]c2ccccc12)NC(C)=O)[C@@H](C)O)C(=O)N[C@H]1CSSC[C@@H](C(=O)N[C@@H](Cc2c[nH]c3ccccc23)C(=O)N2CCC[C@H]2C(=O)NCC(=O)NCC(=O)NCCCOCCOCCOCCCNC(=O)CCC(=O)N[C@H](CCCCNC(=O)CN2CCN(CC(=O)O)CCN(CC(=O)O)CCN(CC(=O)O)CC2)C(N)=O)NC(=O)[C@H](CC(=O)O)NC(=O)[C@H](Cc2cnc[nH]2)NC(=O)[C@H](Cc2ccc3ccccc3c2)NC(=O)[C@H](CC(N)=O)NC(=O)[C@H](CC(N)=O)NC1=O [compound 167, Ac-W-T-I-C(3)-N-N-(2Nal)-H-D-C(3)-W-P-G-G-TTDS-[D-Lys(DOTA)]-NH2] (Ac-WTICNN[2Nal]HDCWPGG-{TtdsdLys(DOTA)NH2}; disulfide 4-10)",< 1
2,"CCC(CC)[C@H](NC(=O)C(NC(=O)[C@H](Cc1c[nH]c2ccccc12)NC(C)=O)[C@@H](C)O)C(=O)N[C@H]1CSSC[C@@H](C(=O)N[C@@H](Cc2c[nH]c3ncccc23)C(=O)N2CCC[C@H]2C(=O)N[C@H](CCCCNC(=O)CN2CCN(CC(=O)O)CCN(CC(=O)O)CCN(CC(=O)O)CC2)C(N)=O)NC(=O)[C@H](CC(=O)O)NC(=O)[C@H](Cc2cnc[nH]2)NC(=O)[C@H](Cc2ccc3ccccc3c2)NC(=O)[C@H](CC(N)=O)NC(=O)[C@H](CC(N)=O)NC1=O (stereo partly drawn) [compound 193, Ac-W-T-(Env)-C(3)-N-N-(2Nal)-H-D-C(3)-(7-Aza-W)-P-[D-Lys(DOTA)]-NH2] (Ac-W[ξThr(3R)][Nva(3-Et)]CNN[2Nal]HDC[Trp(7-aza)]P[dK](DOTA)-NH2; disulfide 4-10)",< 1
3,"CC(=O)N[C@@H](Cc1c[nH]c2ccccc12)C(=O)NC(C(=O)N[C@H](C(=O)N[C@H]1CSSC[C@@H](C(=O)N[C@@H](Cc2c[nH]c3ncccc23)C(=O)N2CCC[C@H]2C(=O)N[C@H](CCCCNC(=O)CN2CCN(CC(=O)O)CCN(CC(=O)O)CCN(CC(=O)O)CC2)C(N)=O)NC(=O)[C@H](CC(=O)O)NC(=O)[C@H](Cc2cnc[nH]2)NC(=O)[C@H](Cc2ccc3ccccc3c2)NC(=O)[C@H](CC(N)=O)NC(=O)[C@H](C)NC1=O)C1CCCCC1)[C@@H](C)O (stereo partly drawn) [compound 194, Ac-W-T-(Chg)-C(3)-A-N-(2Nal)-H-D-C(3)-(7-Aza-W)-P-[D-Lys(DOTA)]-NH2] (Ac-W[ξThr(3R)][Chg]CAN[2Nal]HDC[Trp(7-aza)]P[dK](DOTA)-NH2; disulfide 4-10)",< 1
4,"CC(=O)N[C@@H](Cc1c[nH]c2ccccc12)C(=O)N[C@H](C(=O)N[C@@H](CC1CCCCC1)C(=O)N[C@H]1CSSC[C@@H](C(=O)N[C@@H](Cc2c[nH]c3ncccc23)C(=O)N2CCC[C@H]2C(=O)N[C@H](CCCCNC(=O)CN2CCN(CC(=O)O)CCN(CC(=O)O)CCN(CC(=O)O)CC2)C(N)=O)NC(=O)[C@H](CC(=O)O)NC(=O)[C@H](Cc2cnc[nH]2)NC(=O)[C@H](Cc2ccc3ccccc3c2)NC(=O)[C@H](CC(N)=O)NC(=O)[C@H](C)NC1=O)[C@@H](C)O [compound 195, Ac-W-T-(CHA)-C(3)-A-N-(2Nal)-H-D-C(3)-(7-Aza-W)-P-[D-Lys(DOTA)]-NH2] (Ac-WT[Cha]CAN[2Nal]HDC[Trp(7-aza)]P[dK](DOTA)-NH2; disulfide 4-10)",< 1
5,"CCC(CC)[C@H](NC(=O)[C@@H](NC(=O)[C@H](Cc1c[nH]c2ccccc12)NC(C)=O)[C@@H](C)O)C(=O)N[C@H]1CSSC[C@@H](C(=O)N[C@@H](Cc2c[nH]c3ncccc23)C(=O)N2CCC[C@H]2C(=O)N[C@H](CCCCNC(=O)CN2CCN(CC(=O)O)CCN(CC(=O)O)CCN(CC(=O)O)CC2)C(N)=O)NC(=O)[C@H](CC(=O)O)NC(=O)[C@H](Cc2cnc[nH]2)NC(=O)[C@H](Cc2ccc3ccccc3c2)NC(=O)[C@H](CC(N)=O)NC(=O)[C@H](C)NC1=O [compound 196, Ac-W-T-(Env)-C(3)-A-N-(2Nal)-H-D-C(3)-(7-Aza-W)-P-[D-Lys(DOTA)]-NH2] (Ac-WT[Nva(3-Et)]CAN[2Nal]HDC[Trp(7-aza)]P[dK](DOTA)-NH2; disulfide 4-10)",< 1
6,"CC(=O)N[C@@H](Cc1c[nH]c2ccccc12)C(=O)N[C@H](C(=O)N[C@H](C(=O)N[C@H]1CSSC[C@@H](C(=O)N[C@@H](Cc2c[nH]c3ncccc23)C(=O)N2CCC[C@H]2C(=O)N[C@H](CCCCNC(=O)CN2CCN(CC(=O)O)CCN(CC(=O)O)CCN(CC(=O)O)CC2)C(N)=O)NC(=O)[C@H](CC(=O)O)NC(=O)[C@H](Cc2cnc[nH]2)NC(=O)[C@H](Cc2ccc3ccccc3c2)NC(=O)[C@H](C)NC(=O)[C@H](CC(N)=O)NC1=O)C1CCCCC1)[C@@H](C)O [compound 197, Ac-W-T-(Chg)-C(3)-N-A-(2Nal)-H-D-C(3)-(7-Aza-W)-P-[D-Lys(DOTA)]-NH2] (Ac-WT[Chg]CNA[2Nal]HDC[Trp(7-aza)]P[dK](DOTA)-NH2; disulfide 4-10)",< 1
7,"CC(=O)N[C@@H](Cc1c[nH]c2ccccc12)C(=O)N[C@H](C(=O)N[C@@H](CC1CCCCC1)C(=O)N[C@H]1CSSC[C@@H](C(=O)N[C@@H](Cc2c[nH]c3ncccc23)C(=O)N2CCC[C@H]2C(=O)N[C@H](CCCCNC(=O)CN2CCN(CC(=O)O)CCN(CC(=O)O)CCN(CC(=O)O)CC2)C(N)=O)NC(=O)[C@H](CC(=O)O)NC(=O)[C@H](Cc2cnc[nH]2)NC(=O)[C@H](Cc2ccc3ccccc3c2)NC(=O)[C@H](C)NC(=O)[C@H](CC(N)=O)NC1=O)[C@@H](C)O [compound 198, Ac-W-T-(CHA)-C(3)-N-A-(2Nal)-H-D-C(3)-(7-Aza-W)-P-[D-Lys(DOTA)]-NH2] (Ac-WT[Cha]CNA[2Nal]HDC[Trp(7-aza)]P[dK](DOTA)-NH2; disulfide 4-10)",< 1
8,"CCC(CC)[C@H](NC(=O)[C@@H](NC(=O)[C@H](Cc1c[nH]c2ccccc12)NC(C)=O)[C@@H](C)O)C(=O)N[C@H]1CSSC[C@@H](C(=O)N[C@@H](Cc2c[nH]c3ncccc23)C(=O)N2CCC[C@H]2C(=O)N[C@H](CCCCNC(=O)CN2CCN(CC(=O)O)CCN(CC(=O)O)CCN(CC(=O)O)CC2)C(N)=O)NC(=O)[C@H](CC(=O)O)NC(=O)[C@H](Cc2c[nH]cn2)NC(=O)[C@H](Cc2ccc3ccccc3c2)NC(=O)[C@H](C)NC(=O)[C@H](CC(N)=O)NC1=O [compound 199, Ac-W-T-(Env)-C(3)-N-A-(2Nal)-H-D-C(3)-(7-Aza-W)-P-[D-Lys(DOTA)]-NH2] (Ac-WT[Nva(3-Et)]CNA[2Nal]HDC[Trp(7-aza)]P[dK](DOTA)-NH2; disulfide 4-10)",< 1
9,"CCC(CC)[C@H](NC(=O)[C@@H](NC(=O)[C@H](Cc1c[nH]c2ccccc12)NC(C)=O)[C@@H](C)O)C(=O)N[C@H]1CSSC[C@@H](C(=O)N[C@@H](Cc2c[nH]c3ncccc23)C(=O)N2CCC[C@H]2C(=O)N[C@H](CCCCNC(=O)C[C@H]2CC[C@H](NC(=O)CN3CCN(CC(=O)O)CCN(CC(=O)O)CCN(CC(=O)O)CC3)CC2)C(N)=O)NC(=O)[C@H](CC(=O)O)NC(=O)[C@H](Cc2cnc[nH]2)NC(=O)[C@H](Cc2ccc3ccccc3c2)NC(=O)[C@H](CC(N)=O)NC(=O)[C@H](CC(N)=O)NC1=O [compound 202, Ac-W-T-(Env)-C(3)-N-N-(2Nal)-H-D-C(3)-(7-Aza-W)-P-[D-Lys(Chx-DOTA)]-NH2] (Ac-WT[Nva(3-Et)]CNN[2Nal]HDC[Trp(7-aza)]P[dK](X4)-NH2; disulfide 4-10)",1 to 10
10,"CC(=O)N[C@@H](Cc1c[nH]c2ccccc12)C(=O)N[C@H](C(=O)N[C@H](C(=O)N[C@H]1CSSC[C@@H](C(=O)N[C@@H](Cc2c[nH]c3ncccc23)C(=O)N2CCC[C@H]2C(=O)N[C@H](CCCCNC(=O)C[C@H]2CC[C@H](NC(=O)CN3CCN(CC(=O)O)CCN(CC(=O)O)CCN(CC(=O)O)CC3)CC2)C(N)=O)NC(=O)[C@H](CC(=O)O)NC(=O)[C@H](Cc2cnc[nH]2)NC(=O)[C@H](Cc2ccc3ccccc3c2)NC(=O)[C@H](CC(N)=O)NC(=O)[C@H](CC(N)=O)NC1=O)C1CCCCC1)[C@@H](C)O [compound 203, Ac-W-T-(Chg)-C(3)-N-N-(2Nal)-H-D-C(3)-(7-Aza-W)-P-[D-Lys(Chx-DOTA)]-NH2] (Ac-WT[Chg]CNN[2Nal]HDC[Trp(7-aza)]P[dK](X4)-NH2; disulfide 4-10)",< 1
11,"CCC(CC)[C@H](NC(=O)[C@@H](NC(=O)[C@H](Cc1c[nH]c2ccccc12)NC(C)=O)[C@@H](C)O)C(=O)N[C@H]1CSSC[C@@H](C(=O)N[C@@H](Cc2c[nH]c3ncccc23)C(=O)N2CCC[C@H]2C(=O)N[C@H](CCCCNC(=O)CCC(=O)NCCCOCCOCCOCCCNC(=O)CN2CCN(CC(=O)O)CCN(CC(=O)O)CCN(CC(=O)O)CC2)C(N)=O)NC(=O)[C@H](CC(=O)O)NC(=O)[C@H](Cc2c[nH]cn2)NC(=O)[C@H](Cc2ccc3ccccc3c2)NC(=O)[C@H](CC(N)=O)NC(=O)[C@H](CC(N)=O)NC1=O [compound 204, Ac-W-T-(Env)-C(3)-N-N-(2Nal)-H-D-C(3)-(7-Aza-W)-P-[D-Lys(G-G-TTDS-DOTA)]-NH2] (Ac-WT[Nva(3-Et)]CNN[2Nal]HDC[Trp(7-aza)]P[dK]([Suc-X9])-NH2; disulfide 4-10)",< 1
